Test results reported in patent US7417156B2, “Orally active, antimalarial, anticancer, artemisinin-derived trioxane dimers” (Johns Hopkins University, priority 2002, dated 2008).
pIC50: −log10 of the molar value.

How the values were obtained:
NCI/ADR-RES = test: NCI 60 cell line panel screen (SRB); format: cell-based, human; details: for Log10GI50: Breast Cancer, NCI/ADR-RES; for Log10LC50 / Log10TGI50: NCI/ADR-RES (Breast Cancer); for Log10LC50: LC50: PG=−50; for Log10TGI50: TGI: PG=0
[1] = system: chloroquine-sensitive P. falciparum (NF54); test: Antimalarial activity in vitro, [3H]hypoxanthine incorporation; format: cell-based; details: Plasmodium falciparum, NF54, Table I; NF54 strain; read-out: IC50
MOLT-4 = details: for Log10GI50: Leukemia, MOLT-4; for Log10LC50 / Log10TGI50: MOLT-4 (Leukemia); for Log10LC50: LC50: PG=−50; for Log10TGI50: TGI: PG=0; for drug concentration for primary growth inhibition (percentage growth +50): MOLT-4, from dose response curves FIGS. 7a-7i; for concentration for cytotoxicity (percentage growth −50): human, 48 h
Protocol: Growth Inhibition. […] The screening assay is performed on 96-well microtitre plates. Relatively high initial inoculation densities are used, in order to permit measurement of “time-zero” values and to enhance the screen's ability to detect and provide some differentiation between growth inhibition and cytotoxic response parameters. […] The inoculated microtitre plates are pre-incubated for 24 hours at 37° C. prior to drug additions. The five drug dilutions tested routinely range from 10^−4 to 10^−8 molar. Higher or lower concentration ranges may be selected on a non-routine basis if appropriate solubility and/or prior biological information or other screening data so dictate. Duplicate wells are prepared for all concentrations, (concentration is often denoted by placing brackets around a number); “time-zero” and “no drug” controls are also provided for each test. The minimum amount of compound required for a one-time evaluation in the routine screen can be calculated from the knowledge that each test requires a total of approximately 40 ml (0.04 liter) of cell culture medium containing the highest desired drug concentration. […] After a 48 hour incubation (37° C.) with the test compound, the cells are fixed in situ to the bottoms of the microtitre wells by addition of 50 μl of either 50% trichloroacetic acid (for adherent cell lines) or 80% trichloroacetic acid (for settled cell suspension lines), followed by incubation for 60 minutes at 4° C. The cellular protein in each well is assayed using a sulforhodamine B (SRB) stain procedure. Briefly, after discarding the supernatants, the microtitre plates are washed 5 times with deionized water and air-dried. […] Unbound SRB is removed by washing 5 times with 1% acetic acid. […] SRB is a bright pink anionic dye which, in dilute acetic acid, binds electrostatically to the basic amino acids of TCA-fixed cells. Cryopreserved master stocks of all the lines are maintained, and cultures used for screening are replaced from the master stock after no more than twenty passages in the screening laboratory. The cell line panel consists of 60 lines, organized into nine, disease-related subpanels including leukemia, non-small-cell lung cancer, colon, CNS, melanoma, ovarian, renal, prostate and breast cancers.
At this value the increase from time tzero, in the number or mass of cells in the test well is only 50% as much as the corresponding increase in the control well during this period of the experiment, see Table III. A drug effect of this intensity is interpreted as primary growth inhibition.
At this value the number or mass of cells in the well at the end of the experiment equals the number or mass of cells in the well at time tzero, see Table IV. A drug effect of this intensity is regarded as cytostasis.
At this value, the number or mass of cells in the test well at the end of the experiment is half that at time tzero, see Table V. This is interpreted as cytotoxicity.
Dose response curves, shown in the above mentioned Figures, are obtained by exposing various cancer cell lines to compounds having a known concentration ([log10M]), as discussed in detail above, and then plotting the percentage growth of each cell line for each concentration. […] Percentage growth is determined by dividing the number or mass of cells in the test well by the number or mass of cells in a control well. […] As discussed previously, the five drug dilutions routinely tested range from 10^−4 to […].

OVCAR-8 = test: NCI 60 cell line panel screen (SRB); format: cell-based, human; details: for Log10LC50: LC50: PG=−50; for Log10GI50: Ovarian Cancer, OVCAR-8
HT29 = test: NCI 60 cell line panel screen (SRB); format: cell-based, human; details: for Log10GI50: Colon Cancer, HT29; for Log10LC50: HT29 (Colon Cancer), LC50: PG=−50
HL-60(TB) = test: NCI 60 cell line panel screen (SRB); format: cell-based, human; details: for Log10LC50: LC50: PG=−50; for Log10GI50: Leukemia, HL-60(TB)
UACC-257 = test: NCI 60 cell line panel screen (SRB); format: cell-based, human; details: for Log10GI50: Melanoma, UACC-257; for Log10LC50 / Log10TGI50: UACC-257 (Melanoma); for Log10LC50: LC50: PG=−50; for Log10TGI50: TGI: PG=0
K-562 = test: NCI 60 cell line panel screen (SRB); format: cell-based, human; details: for Log10LC50 / Log10TGI50: K-562 (Leukemia); for Log10LC50: LC50: PG=−50; for Log10TGI50: TGI: PG=0; for Log10GI50: Leukemia, K-562
CCRF-CEM = test: NCI 60 cell line panel screen (SRB); format: cell-based, human; details: for Log10LC50 / Log10TGI50: CCRF-CEM (Leukemia); for Log10LC50: LC50: PG=−50; for Log10TGI50: TGI: PG=0; for Log10GI50: Leukemia, CCRF-CEM
SF-539 = test: NCI 60 cell line panel screen (SRB); format: cell-based, human; details: for Log10GI50: CNS Cancer, SF-539; for Log10LC50: LC50: PG=−50
RXF 393 = test: NCI 60 cell line panel screen (SRB); format: cell-based, human; details: for Log10LC50 / Log10TGI50: RXF 393 (Renal Cancer); for Log10LC50: LC50: PG=−50; for Log10TGI50: TGI: PG=0; for Log10GI50: Renal Cancer, RXF 393
MCF7 = test: NCI 60 cell line panel screen (SRB); format: cell-based, human; details: for Log10GI50: Breast Cancer, MCF7; for Log10LC50: LC50: PG=−50
HOP-62 = test: NCI 60 cell line panel screen (SRB); format: cell-based, human; details: for Log10LC50 / Log10TGI50: HOP-62 (Non-Small Cell Lung Cancer); for Log10LC50: LC50: PG=−50; for Log10TGI50: TGI: PG=0; for Log10GI50: Non-Small Cell Lung Cancer, HOP-62
SF-268 = test: NCI 60 cell line panel screen (SRB); format: cell-based, human
MDA-MB231/ATCC = test: NCI 60 cell line panel screen (SRB); format: cell-based, human
BT-549 = test: NCI 60 cell line panel screen (SRB); format: cell-based, human

Compound | Log10GI50 (NCI/ADR-RES) | Log10LC50 (NCI/ADR-RES) [log10M] | Log10TGI50 (NCI/ADR-RES) [log10M] | Log10GI50 (MOLT-4) | Log10LC50 (MOLT-4) [log10M] | Log10TGI50 (MOLT-4) [log10M] | drug concentration for primary growth inhibition (percentage growth +50) (MOLT-4) | concentration for cytotoxicity (percentage growth −50) (MOLT-4) | Log10LC50 (OVCAR-8; OVCAR-8 (Ovarian Cancer)) [log10M] | Log10GI50 (OVCAR-8) | Log10GI50 (HT29) | Log10LC50 (HT29) [log10M] | Log10LC50 (HL-60(TB); HL-60(TB) (Leukemia)) [log10M] | Log10GI50 (HL-60(TB)) | Log10GI50 (UACC-257) | Log10LC50 (UACC-257) [log10M] | Log10TGI50 (UACC-257) [log10M] | Log10LC50 (K-562) [log10M] | Log10TGI50 (K-562) [log10M] | Log10GI50 (K-562) | further results
C[C@@H]1CC[C@H]2[C@@H](C)C(CC(O)(COC(=O)CCC(=O)O)CC3OC4O[C@]5(C)CC[C@H]6[C@H](C)CC[C@@H]([C@H]3C)C46OO5)OC3O[C@]4(C)CCC1C32OO4 (stereo partly shown) [Compound 9, tertiary alcohol primary succinate ester] | −5.61 | >−4.30 | >−4.30 | −5.15 | >−4.30 | >−4.30 | < 10^−5 molar | greater than 10^−4 M | >−4.30 | −5.12 | <−8.30 | >−4.30 | >−4.30 | <−8.30 | −4.89 | >−4.30 | >−4.30 | >−4.30 | >−4.30 | −8.30 | pIC50 [1]: 8.52; Log10TGI50 (OVCAR-8; OVCAR-8 (Ovarian Cancer), TGI: PG=0): >−4.30 log10M; Log10LC50 (CCRF-CEM): >−4.30 log10M; Log10TGI50 (CCRF-CEM): >−4.30 log10M; Log10GI50 (CCRF-CEM): <−8.30; Log10GI50 (SF-539): −4.90; Log10LC50 (SF-539; SF-539 (CNS Cancer)): >−4.30 log10M; Log10TGI50 (SF-539; SF-539 (CNS Cancer), TGI: PG=0): −4.50 log10M; Log10LC50 (RXF 393): >−4.30 log10M; Log10TGI50 (RXF 393): −4.45 log10M; Log10GI50 (RXF 393): −7.67; Log10GI50 (MCF7): <−8.30; Log10LC50 (MCF7; MCF7 (Breast Cancer)): >−4.30 log10M; Log10TGI50 (MCF7; MCF7 (Breast Cancer), TGI: PG=0): >−4.30 log10M; Log10LC50 (HOP-62): >−4.30 log10M; Log10TGI50 (HOP-62): >−4.30 log10M; Log10GI50 (HOP-62): −5.69; Log10GI50 (SF-268; CNS Cancer, SF-268): −5.48; Log10LC50 (SF-268; SF-268 (CNS Cancer), LC50: PG=−50): >−4.30 log10M; Log10TGI50 (SF-268; SF-268 (CNS Cancer), TGI: PG=0): >−4.30 log10M
CC(=O)O[C@H]1C(=O)[C@@]2(C)[C@H]([C@H](OC(=O)c3ccccc3)[C@]3(O)C[C@H](OC(=O)[C@H](O)[C@@H](NC(=O)c4ccccc4)c4ccccc4)C(C)=C1C3(C)C)[C@]1(OC(C)=O)CO[C@@H]1C[C@@H]2O [Paclitaxel, paclitaxel, reference compound] | −8.48 | >−4.00 | >−4.00 | −11.07 | >−4.00 | >−4.00 | 10^−11 molar | greater than 10^−4 M | >−4.00 | −10.75 | <−13.00 | −4.39 | >−4.53 | −11.57 | −10.30 | −4.03 | −4.52 | >−4.00 | >−4.00 | −10.83 | Log10TGI50 (HL-60(TB); HL-60(TB) (Leukemia), TGI: PG=0): −4.53 log10M; Log10GI50 (MDA-MB231/ATCC; Breast Cancer, MDA-MB231/ATCC): −8.54; Log10TGI50 (MDA-MB231/ATCC; MDA-MB231/ATCC (Breast Cancer), TGI: PG=0): −4.84 log10M; Log10LC50 (BT-549; BT-549 (Breast Cancer), LC50: PG=−50): >−4.00 log10M; Log10TGI50 (BT-549; BT-549 (Breast Cancer), TGI: PG=0): −6.32 log10M; Log10GI50 (BT-549; Breast Cancer, BT-549): −9.31; Log10LC50 (CCRF-CEM): >−4.00 log10M; Log10TGI50 (CCRF-CEM): >−4.00 log10M; Log10GI50 (CCRF-CEM): −11.61; Log10GI50 (SF-539): −11.09; Log10LC50 (SF-539; SF-539 (CNS Cancer)): >−4.00 log10M; Log10LC50 (RXF 393): >−4.00 log10M; Log10TGI50 (RXF 393): >−4.00 log10M; Log10GI50 (RXF 393): −8.32; Log10GI50 (MCF7): −11.69; Log10LC50 (MCF7; MCF7 (Breast Cancer)): >−4.00 log10M; Log10LC50 (HOP-62): −4.10 log10M; Log10TGI50 (HOP-62): −4.80 log10M; Log10GI50 (HOP-62): −9.67
